Drawing on US6399773B1, “Compounds derived from an amine nucleus that are inhibitors of IMPDH enzyme” (Bristol-Myers Squibb Co., priority 1998, dated 2002), this text covers melting point for 6 compounds.

As for `COc1cc(Nc2ncc(-c3ccccc3C(=O)O)o2)ccc1-c1cnco1` [Example 80, 2-[2-[[3-Methoxy-4-(5-oxazolyl)phenyl]amino]-5-oxazolyl]benzoic acid], the melting point (as a rule, the temperature of the solid-liquid transition) fell in the range of 271 to 274 °C.
Consider `COc1cc(Nc2nsc(-c3ccccc3)n2)ccc1-c1cnco1` [Example 30, N-[3-Methoxy-4-(5-oxazolyl)phenyl]-5-phenyl-1,2,4-thiadiazol-3-amine], for which the melting point lay in the range of 260 to 261 °C.
For the compound `COc1cc(Nc2ncc(-c3ccccc3N(C)C(=O)CN3CCOCC3)o2)ccc1-c1cnco1` [Example 79, N-[2-[2-[[3-Methoxy-4-(5-oxazolyl)phenyl]amino]-5-oxazolyl]phenyl]-N-methyl-4-morpholineacetamide], the melting point lay in the range of 179 to 181 °C.
`COc1cc(Nc2ncc(-c3ccccc3)o2)ccc1-c1cnco1` [Example 34, N-[3-Methoxy-4-(5-oxazolyl)phenyl]-5-phenyl-2-oxazolamine] had a melting point of 212 to 215 °C.
To `COc1cc(Nc2cc(-c3ccccc3)on2)ccc1-c1cnco1` [Example 31, N-[3-Methoxy-4-(5-oxazolyl)phenyl]-5-phenyl-3-isoxazolamine] belongs 173 to 175 °C.
To `COc1cc(Nc2cccc(-c3ccccc3)c2)ccc1-c1cnco1` [Example 29, N-[3-Methoxy-4-(5-oxazolyl)phenyl][1,1′-biphenyl]-3-amine] belongs 171 to 173 °C.
